Key:
[1] = Kinetic studies of N6 protecting group deprotection in ammonia: migration of methyl group from N1 to N6 (Dimroth rearrangement), by TLC and HPLC; type: physicochemical
Excerpt: Prior to utilize the N-6 chloroacetyl protected N-1 methyl-2′-deoxyadenosine 3′-cyanoethyl phosphoramidite, we carried out a number of kinetic studies for the deprotection of chloroacetyl group and determination of presence of any N-6 methyl
Our subsequent studies to develop a ideal group which would be cleanly removed under aq ammonia deprotection condition and would have negligible amount of Dimroth rearrangement product as bye product.
FIG. 7. 5′-DMT-N^1-Methyl-N^6-FMOC-2′-deoxyadenosine-Kinetic Test for FMOC. Deprotection (20% methanolic ammonia at 37 C. Note: The N-6 methyl migration product is seen 2.27% after complete deprotection.
(required to knock off Phenoxy acetyl from N^6 position). To minimize this migration, we introduced N-FMOC group in place of N-PAC which reduced 20% methanolic ammonia hydrolysis time to only 4 hours at 37° C. but even in 4 hours, approx. 2.5% migration took place. This migration of methyl group from N-^1 to N^6 position was confirmed by TLC & HPLC.

[2] = cited from earlier work
[3] = 2M methanolic ammonia at room temperature

With COc1ccc(C(OCC2OC(n3cnc4c(=NC(=O)OCC5c6ccccc6-c6ccccc65)n(C)cnc43)CC2OP(OCCC#N)N(C(C)C)C(C)C)(c2ccccc2)c2ccc(OC)cc2)cc1 (stereo not drawn) [5′-DMT-N^1-Methyl-N^6-FMOC-2′-deoxyadenosine-3′-cyanoethyl, n,n-diisopropyl phosphoramidite] the “presence of N-6 methyl-2′-deoxy adenosine” value ([1]; aq ammonia deprotection) was “less than 1%”.

In the case of COc1ccc(C(OC[C@H]2O[C@@H](n3cnc4c(=NC(=O)OCC5c6ccccc6-c6ccccc65)n(C)cnc43)C[C@@H]2O)(c2ccccc2)c2ccc(OC)cc2)cc1 [5′-DMT-N^1-Methyl-N^6-FMOC-2′-deoxyadenosine], the “N-6 methyl migration product after complete deprotection” value ([1]; FMOC deprotection, 20% methanolic ammonia at 37 C (FIG. 7)) was 2.27%.

In the case of Cn1cnc2c(ncn2[C@@H]2O[C@H](CO)[C@@H](O)[C@H]2O)c1=N [N^1-methyl adenosine], the time stable [2, 3] is given as 3 days and the “time to total conversion into N6-methyl adenosine” value [2, 3] is given as 6 days.

In the case of Cn1cnc2c(ncn2[C@H]2C[C@H](O)[C@@H](CO)O2)c1=N [N^1-methyl-2′-deoxyadenosine], the “half life of conversion into N6-methyl-2′-deoxyadenosine” value ([2]; 25% aq. ammonia) is given as 36 h.

In the case of “N-6 chloroacetyl protected N-1 methyl-2′-deoxyadenosine 3′-cyanoethyl phosphoramidite”, the “N-6 methyl-2′-deoxy adenosine formation (Dimroth rearrangement product)” value ([1]; deprotection of chloroacetyl group) was 8-10%.

From patent US8785619B1, “Nucleosides and oligonucleotides for studies on reversal of cytotoxic and mutagenic damage of DNA potential diagnostics tools” (ChemGenes Corporation, priority 2003, dated 2014)
